Columns and labels:
[1] = Stability of SCFA mix in mouse water bottle over time; format: physicochemical
Protocol: Mice were treated for 21 days with either sodium acetate (150 mM), sodium propionate (150 mM), sodium butyrate (100 mM) or a SCFA mix (67.5 mM acetate, 40 mM Butyrate, 25.9 mM Propionate) in the drinking water. In in vivo drinking water treatment experiments, control mice received pH and sodium-matched water. At the conclusion of the experiment mice were removed from isolators and processed immediately.

[2] = test system: colonic lamina propria Treg; assay: In vitro T cell stimulation of colonic Treg (RTqPCR, ELISA, proliferation); format: cell-based, mice
Protocol: Treg were isolated from the colon, small intestine, mesenteric lymph node or spleen of C57BL/6 Foxp3^YFP-Cre mice and FACS-sorted based on expression of YFP. RNA samples were prepared using the RNeasy Mini Kit (Qiagen) and cDNA was synthesized using the Bio-Rad iScript cDNA Synthesis Kit. Real-time (RT)-qPCR was performed using the KAPA SYBR FAST Universal qPCR Kit (KAPA Biosystems) and a Stratagene MX3005P (Agilent Technologies). The following primer sequences were used:
Colonic lamina propria Treg were isolated from C57BL/6 Foxp3^YFP-Cre mice as described above and FACS-sorted based on expression of YFP. Isolated Treg were cultured in RPMI 1640 medium supplemented with 10% FBS (Gibco), 4 mM L-glutamine, 80 U/ml penicillin, 80 μg/ml streptomycin, 1 mM sodium pyruvate, 10 mM HEPES and 1× nonessential amino acids (all obtained from Cellgro). Treg were stimulated with 1 μg/ml anti-CD3 antibody and with or without 0.1 mM sodium propionate for 24 h at 37° C. The division index is calculated by dividing the total number of cell divisions by the number of cells added at the start of the culture and represents the average number of divisions a cell from the original population has undergone and includes the undivided fraction in the calculation.
Cytokines were measured in culture supernatants using standard cytokines, antibodies and protocols. IL-10 was measured using the BD OptEIA ELISA Kit (BD Biosciences) and TGFβ1 levels were measured using the mouse TGF-beta 1 DuoSet (R&D Systems).

T cell transfer colitis = assay: T cell transfer model of colitis; format: in vivo, mice
Excerpt: At Day 0, Naive CD4+CD25^−CD45RB^hi splenic T cells were FACS-sorted from BALB/c mice and injected i.p. into 6-8 week old BALB/c RAG2^−/− immunodeficient recipients (5×10^5 cells/mouse). At day 10, BALB/c RAG2^−/− immunodeficient recipients received CD4^+ CD25^+ CD45RB^lo splenic Treg cells (75,000/mouse) isolated from BALB/c or C57BL/6 mice Ffar2^+/+ and Ffar2^−/− mice where indicated. Mice were monitored weekly for weight loss and morbidity for 6-9 weeks as per the protocol's experimental endpoint guidelines.
Colons were excised and cleaned with DPBS prior to fixation in 4% PFA and then processed by routine paraffin embedding, sectioning and H&E staining. Colitis scores were determined by J.N.G., who was blinded to the experimental parameters. Each of 4 histologic parameters were scored as absent (0), mild (1), moderate (2), or severe (3): mononuclear cell infiltraton, polymorphonuclear cell infiltration, epithelial hyperplasia, and epithelial injury. The scores for the parameters were summed to generate the cumulative histologic colitis score as previously described.

[3] = mouse, in vivo
Protocol: At the conclusion of the experiment mice were removed from isolators and processed immediately.
Cecal or small intestinal contents were collected immediately after animals were sacrificed and flash frozen in N2(1). Samples were mashed in 500 μl HPLC grade water and centrifuged at >14,000 x g, the resulting supernatant was then passed through a 0.22 μm syringe filter to remove bacterial cells and debris. Samples we then acidified with 1/10 volume of 0.01M H2SO4, heated and passed through a condenser to isolate volatile compounds within a sample. SCFA analyses were performed using an Agilent 1200 series HPLC and a Poroshell 120 SB C18 column (2.7 μm, 3.0×100mm) with guard column (Agilent Technologies). Sulfuric acid (0.01M) was used as the mobile phase. SCFA concentrations were weight corrected.

Ffar2 = target: T1, Ffar2 (Homo sapiens, UniProt O15552); details: among SCFA; Le Poul et al. 2003; cited from earlier work
T1 sequence (O15552 1-330): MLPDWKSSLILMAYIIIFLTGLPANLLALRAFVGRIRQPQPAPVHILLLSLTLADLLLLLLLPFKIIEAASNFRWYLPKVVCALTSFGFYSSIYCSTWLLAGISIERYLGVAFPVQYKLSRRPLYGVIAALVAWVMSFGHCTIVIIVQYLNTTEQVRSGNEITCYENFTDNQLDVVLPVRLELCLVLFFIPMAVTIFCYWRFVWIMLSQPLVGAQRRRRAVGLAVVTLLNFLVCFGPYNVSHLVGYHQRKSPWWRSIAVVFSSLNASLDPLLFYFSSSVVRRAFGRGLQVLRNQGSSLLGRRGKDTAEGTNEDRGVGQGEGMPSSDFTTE

With `CCC(=O)O` [Propionate, propionic acid] the “SCFA mix in mouse water bottle over time, Input (Day 0)” value ([1]; Day 0) was 200 mM, the “SCFA mix in mouse water bottle over time, Day 1” value ([1]; Day 1, input 200 mM) was 200 mM and the “SCFA mix in mouse water bottle over time, Day 4” value ([1]; Day 4, input 200 mM) was 199.6 mM. For the same compound, the “SCFA mix in mouse water bottle over time, Day 7” value ([1]; Day 7, input 200 mM) was 201.24 mM, the “SCFA mix in mouse water bottle over time, Day 10” value ([1]; Day 10, input 200 mM) was 202.9 mM and the “SCFA mix in mouse water bottle over time, Day 14” value ([1]; Day 14, input 200 mM) was 203.2 mM. For the same compound, the “SCFA mix in mouse water bottle over time, Day 90” value ([1]; Day 90, input 200 mM) was 41.9 mM, the “Foxp3 and IL-10 expression and IL-10 protein levels” value ([2]; Ffar2+/+ cTreg, 0.1 mM, 24 hours) was “enhanced” and the cTreg proliferation ([2]; anti-CD3 and IL-2, 0.1 mM propionate) was “enhanced proliferation”. The “Foxp3 and IL-10 expression in cTreg” value ([2]; cTreg from GF mice stimulated 24 hours in vitro, 0.1 mM) was “significant increase”, the IL-10 production ([2]; cTreg from GF mice, in vitro 24 hours, 0.1 mM, ELISA) was “increased” and the “Foxp3 expression, IL-10 expression and IL-10 protein production” value ([2]; cTreg from SPF mice, 24 hours in vitro, 0.1 mM) was “increases”. For the same compound, the “effect on intestinal inflammation (colitis scores)” value (T cell transfer colitis; Ffar2+/+ or Ffar2-/- Treg transferred) was “dependent upon Ffar2 expression in Treg”, the “degrees of colonic crypt injury, inflammation, and hyperplasia” value (T cell transfer colitis; H&E, compared to control mice) was “reduced degrees” and the “frequency and number of colonic LP Foxp3+ Treg” value (T cell transfer colitis; T cell transfer colitis) was “increase”. For the same compound, the weight loss (T cell transfer colitis; naïve T cells and Treg, vs water alone (P<0.0001)) was “less severe”, the mean colitis score (T cell transfer colitis; naïve T cells and Treg, water alone 5.1±0.6) was 2.0±0.6 and the “SCFA levels, SPF SI” value [3] was 2.69 ± 0.24 µmol/g. For the same compound, the “SCFA levels, SPF SI + P” value [3] was 12.08 ± 3.69 µmol/g, the “SCFA levels, cecal contents, ASF” value [3] was 18.83 ± 2.72 µmol/g and the “SCFA levels, cecal contents, GF” value [3] was 1.46 ± 0.162 µmol/g. The “SCFA levels, cecal contents, GF + Mic” value [3] was 11.78 ± 6.38 µmol/g, the “SCFA levels, cecal contents, GF + P” value [3] was 14.93 ± 4.50 µmol/g and the “SCFA levels, cecal contents, SPF” value [3] was 21.90 ± 0.122 µmol/g. The “SCFA levels, cecal contents, SPF + P” value [3] was 43.33 ± 12.17 µmol/g, the “SCFA levels, cecal contents, SPF + Vanco” value [3] was 1.851 ± 1.41 µmol/g and the “affinity for Ffar2” value (Ffar2) was “highest affinity”.

— patent US20170340588A1, “MODULATION OF REGULATORY T CELLS VIA G-COUPLED PROTEIN RECEPTOR 43” (President and Fellows of Harvard College, priority 2013, published 2017)
